Measurements published in publication PMC10343272, “Synthesis and Evaluation of ^99mTc-Labeled PSMA-Targeted Tracers Based on the Lys-Urea-Aad Pharmacophore for Detecting Prostate Cancer with Single Photon Emission Computed Tomography” (Molecules, 2023).
Like-named read-outs stand apart in the source and are kept apart here.

Experiments:
PSMA [1] = target: T1, PSMA (Homo sapiens, UniProt Q04609); assay: In vitro competition binding assay ([^18F]DCFPyL displacement on LNCaP cells); conditions: inhibition of [^18F]DCFPyL binding to PSMA-expressing LNCaP cells, n = 3
T1 construct: host or cells: LNCaP cells
Procedure: All tested PSMA-targeted ligands inhibited the binding of [^18F]DCFPyL to PSMA-expressing LNCaP cells in a concentration-dependent manner (Figure 2, n = 3).
The in vitro competition binding assays were performed following our previously published procedures. Briefly, LNCaP cells in RMPI medium with FBS, penicillin, and streptomycin were plated onto 24-well poly-D-lysine coated plates at 200,000 cells/well 48 h prior to binding assay. The growth medium was removed and the cells were rinsed with HEPES-buffered saline (50 mM HEPES, pH 7.5, 0.9% NaCl) two times before 400 µL of HEPES buffer were added to each well. Varying concentrations of PSMA-targeted ligands (50 µL) were added to each well in triplicate before adding 0.1 nmol/50 µL of [^18F]DCFPyL. After the additions, plates were incubated and swirled at 37 °C. After 1 h incubation, the solutions were removed, and cells were washed with HEPES-buffered saline twice. Finally, 400 µL of 0.25% trypsin solution were added to each well. After 10 min incubation, cells were collected for counting using a PerkinElmer (Waltham, MA, USA) Wizard2 2480 automatic gamma counter. The Ki values were analyzed with GraphPad (San Diego, CA, USA) Prism 7 software using nonlinear regression fit.

PSMA [2] = target: T1, PSMA; conditions: previous observation; cited from earlier work

T1 sequence (Q04609 whole entry): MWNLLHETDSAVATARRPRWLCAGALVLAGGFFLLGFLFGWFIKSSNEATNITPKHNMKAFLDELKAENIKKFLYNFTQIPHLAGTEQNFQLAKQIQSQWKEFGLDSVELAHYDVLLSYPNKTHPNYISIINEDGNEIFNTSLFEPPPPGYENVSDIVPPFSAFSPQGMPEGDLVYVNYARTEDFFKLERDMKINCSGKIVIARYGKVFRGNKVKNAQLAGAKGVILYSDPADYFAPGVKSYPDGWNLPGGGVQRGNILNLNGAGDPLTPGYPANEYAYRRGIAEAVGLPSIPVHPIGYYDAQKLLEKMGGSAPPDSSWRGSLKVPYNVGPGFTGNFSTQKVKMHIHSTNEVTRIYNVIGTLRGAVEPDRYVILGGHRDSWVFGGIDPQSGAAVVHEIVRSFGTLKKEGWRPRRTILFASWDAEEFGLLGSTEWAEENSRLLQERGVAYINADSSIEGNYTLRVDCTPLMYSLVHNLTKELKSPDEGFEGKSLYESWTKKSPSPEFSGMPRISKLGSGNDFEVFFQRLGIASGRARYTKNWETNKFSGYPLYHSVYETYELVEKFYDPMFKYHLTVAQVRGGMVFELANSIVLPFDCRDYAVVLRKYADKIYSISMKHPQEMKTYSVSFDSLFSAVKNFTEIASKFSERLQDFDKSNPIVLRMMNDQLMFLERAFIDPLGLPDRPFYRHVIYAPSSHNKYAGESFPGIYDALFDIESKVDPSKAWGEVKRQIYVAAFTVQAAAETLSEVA

SMILES	Ki (PSMA [1])	Ki (PSMA [2])
NNc1ccc(C(=O)NC[C@H]2CC[C@H](C(=O)N[C@@H](Cc3c4ccccc4cc4ccccc34)C(=O)NCCCC[C@H](NC(=O)N[C@@H](CCCC(=O)O)C(=O)O)C(=O)O)CC2)cn1 [HTK03180]	11.6 ± 1.5 nM	
O=C(O)CCC[C@H](NC(=O)N[C@@H](CCCCNC(=O)[C@H](Cc1c2ccccc2cc2ccccc12)NC(=O)[C@H]1CC[C@H](CNC(=O)CN2CCN(CC(=O)O)CCN(CC(=O)O)CCN(CC(=O)O)CC2)CC1)C(=O)O)C(=O)O [HTK03149]		6.99 nM

Further lines, with some results ahead:

Ki (PSMA [1])	SMILES	Ki (PSMA [2])
8.96 ± 0.58 nM	NNc1ccc(C(=O)N[C@@H](Cc2ccc3ccccc3c2)C(=O)NCCCC[C@H](NC(=O)N[C@@H](CCCC(=O)O)C(=O)O)C(=O)O)cn1 [KL01127]	
3.11 nM	NNc1ccc(C(=O)N[C@@H](Cc2ccc3ccccc3c2)C(=O)NCCCC[C@H](NC(=O)N[C@@H](CCC(=O)O)C(=O)O)C(=O)O)cn1 [HYNIC-iPSMA, reference compound]	
10.7 nM	NNc1ccc(C(=O)NC[C@H]2CC[C@H](C(=O)N[C@@H](Cc3c4ccccc4cc4ccccc34)C(=O)NCCCC[C@H](NC(=O)N[C@@H](CCC(=O)O)C(=O)O)C(=O)O)CC2)cn1 [KL01099]	
